Experimental data as given in ChEMBL document CHEMBL1201862, “PubChem BioAssay data set” (2004).
Active and inactive are the calls of the source.

What was measured:
[1] = HeLa cell cytotoxicity, dose response, cytotoxicity control, 24 h, plate reader, dry powder (AID 686928); format: functional, cell-based
[2] = biological target: T1, High affinity choline transporter 1 (Homo sapiens, UniProt Q9GZV3); assay: CHT choline uptake inhibitors, dose response, cell-based, HEK-293 hCHT, [3H]-choline uptake (AID 652177); format: functional
T1 sequence (Q9GZV3 whole entry): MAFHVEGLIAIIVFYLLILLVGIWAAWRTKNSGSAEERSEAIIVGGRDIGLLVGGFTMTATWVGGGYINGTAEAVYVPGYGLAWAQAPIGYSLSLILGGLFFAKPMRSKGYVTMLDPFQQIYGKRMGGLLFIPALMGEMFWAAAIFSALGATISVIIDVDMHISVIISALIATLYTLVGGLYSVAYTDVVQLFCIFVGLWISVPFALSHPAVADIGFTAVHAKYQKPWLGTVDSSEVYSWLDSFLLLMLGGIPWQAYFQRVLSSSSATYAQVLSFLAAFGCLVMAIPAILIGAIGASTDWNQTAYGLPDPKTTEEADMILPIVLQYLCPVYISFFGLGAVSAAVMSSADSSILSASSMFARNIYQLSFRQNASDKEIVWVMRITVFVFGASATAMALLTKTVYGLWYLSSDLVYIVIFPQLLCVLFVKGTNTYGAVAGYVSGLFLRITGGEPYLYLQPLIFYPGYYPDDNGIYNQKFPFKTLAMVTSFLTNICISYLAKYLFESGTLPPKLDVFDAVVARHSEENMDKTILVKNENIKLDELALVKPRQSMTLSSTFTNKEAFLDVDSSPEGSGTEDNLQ

[3] = biological target: T2, Short transient receptor potential channel 4 (Mus musculus, UniProt Q9QUQ5); assay: mouse TRPC4 channel activators, dose response, cell-based, HEK293 TRPC4/mu-opioid, Fluo-4 calcium (AID 434937); format: functional
T2 sequence (Q9QUQ5 whole entry): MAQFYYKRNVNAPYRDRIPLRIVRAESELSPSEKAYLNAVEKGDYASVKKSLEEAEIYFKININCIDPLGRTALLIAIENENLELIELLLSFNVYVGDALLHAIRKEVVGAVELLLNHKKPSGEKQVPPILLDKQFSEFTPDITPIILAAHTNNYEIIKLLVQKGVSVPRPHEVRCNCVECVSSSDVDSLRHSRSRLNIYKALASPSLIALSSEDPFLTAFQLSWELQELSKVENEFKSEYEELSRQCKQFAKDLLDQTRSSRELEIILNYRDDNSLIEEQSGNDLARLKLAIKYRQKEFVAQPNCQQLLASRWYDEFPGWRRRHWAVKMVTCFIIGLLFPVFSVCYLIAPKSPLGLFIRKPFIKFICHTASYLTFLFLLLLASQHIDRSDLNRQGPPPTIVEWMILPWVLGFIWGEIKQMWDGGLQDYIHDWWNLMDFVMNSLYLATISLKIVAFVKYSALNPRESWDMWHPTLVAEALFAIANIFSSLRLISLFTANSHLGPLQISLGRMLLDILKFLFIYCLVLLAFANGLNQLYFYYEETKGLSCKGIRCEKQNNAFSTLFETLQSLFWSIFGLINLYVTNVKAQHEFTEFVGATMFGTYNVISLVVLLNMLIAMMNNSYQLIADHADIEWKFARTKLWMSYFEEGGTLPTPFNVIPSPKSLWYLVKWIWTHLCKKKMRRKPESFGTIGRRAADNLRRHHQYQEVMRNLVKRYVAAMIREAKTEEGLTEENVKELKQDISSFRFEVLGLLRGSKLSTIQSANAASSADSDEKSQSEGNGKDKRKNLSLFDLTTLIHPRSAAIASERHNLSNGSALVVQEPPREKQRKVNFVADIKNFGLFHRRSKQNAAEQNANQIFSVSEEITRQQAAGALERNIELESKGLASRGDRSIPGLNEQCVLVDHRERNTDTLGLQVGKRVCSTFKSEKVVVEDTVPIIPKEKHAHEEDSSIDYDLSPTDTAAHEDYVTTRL

[4] = human group III sPLA2 inhibitors, dose response, biochemical, QFRET, IC50 (AID 743457);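 further: green fluorescence rise as the enzyme cleaves BODIPY PC-A2 in liposomes; potency for inhibition of the enzyme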
[5] = biological target: T3, Oxysterols receptor LXR-beta (Homo sapiens, UniProt P55055); format: functional, cell-based;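 further: agonist activity at LXR measured by a cell-based luminescence readout across a dose range, run as a counterscreen for daf-12 agonists; HEK293 cells with Gal4-LXR fusion and GAL4-driven luciferase reporter; potency for activation of Gal4-LXR reporter so compounds are agonists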
T3 sequence (P55055 whole entry): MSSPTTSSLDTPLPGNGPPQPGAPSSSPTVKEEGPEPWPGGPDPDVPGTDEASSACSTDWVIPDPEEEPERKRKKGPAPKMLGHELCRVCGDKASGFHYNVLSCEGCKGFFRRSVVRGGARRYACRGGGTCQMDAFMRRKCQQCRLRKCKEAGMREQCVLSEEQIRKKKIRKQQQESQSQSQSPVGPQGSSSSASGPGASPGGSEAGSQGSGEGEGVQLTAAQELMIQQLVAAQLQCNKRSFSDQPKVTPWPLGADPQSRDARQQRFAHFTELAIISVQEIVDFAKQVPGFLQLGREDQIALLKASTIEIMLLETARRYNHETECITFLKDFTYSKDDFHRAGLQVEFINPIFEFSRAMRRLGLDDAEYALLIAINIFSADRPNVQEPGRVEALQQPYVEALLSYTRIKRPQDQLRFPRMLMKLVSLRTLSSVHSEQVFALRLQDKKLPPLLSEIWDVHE

[6] = Luminescence Cell-Based Dose Response to Identify Activators of 5'UTR Stem-Loop Driven Prion Protein mRNA Translation in H4-C Neuroglioblastoma Cells. [Related pubchem assays: 1829 (Project Summary), 1814 (Primary HTS)]; format: functional
[7] = biological target: FAD-linked sulfhydryl oxidase ALR (Homo sapiens, UniProt P55789); assay: inhibitors of human ALR sulfhydryl oxidase, dose response, biochemical, H2O2 detection, luminescence, cherry-pick (AID 493248)
Chain of FAD-linked sulfhydryl oxidase ALR (P55789 whole entry): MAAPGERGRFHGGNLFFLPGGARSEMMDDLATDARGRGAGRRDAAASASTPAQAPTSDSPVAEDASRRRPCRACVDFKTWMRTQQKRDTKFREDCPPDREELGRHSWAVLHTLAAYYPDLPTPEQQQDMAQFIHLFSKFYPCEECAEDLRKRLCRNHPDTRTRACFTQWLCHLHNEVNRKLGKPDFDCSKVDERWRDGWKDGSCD

[8] = Luminescence Cell-Based Dose Response HTS to Identify Activators of Luciferase Translation or Activity in H4 […] Cells. [Related pubchem assays: 1829 (Project Summary), 1814 (Primary HTS)]; format: functional
[9] = Luminescence Cell-Based Dose Response to Identify Activators of Luciferase Translation or Activity in H4-C Neuroglioblastoma Cells. [Related pubchem assays: 1829 (Project Summary), 1814 (Primary HTS)]; format: functional
[10] = test system: H4; assay: Luminescence Cell-Based Dose Response HTS to Identify Activators of 5'UTR Stem-Loop Driven Prion Protein mRNA Translation in H4 Neuroglioblastoma Cells. [Related pubchem assays: 1829 (Project Summary), 1814 (Primary HTS)]; format: functional; conditions: Homo sapiens
[11] = Luminescence Cell-Based Dose Confirmation to Identify Activators of 5'UTR Stem-Loop Driven Alpha-Synuclein mRNA Translation in H4 Neuroglioblastoma Cells. [Related pubchem assays: 1829 (Project Summary), 1814 (Primary HTS)]; format: functional
[12] = biological target: Protein Wnt-3a (Mus musculus, UniProt P27467); assay: Wnt3a-driven reporter signaling inhibition, dose response, selectivity assay for Gli-SUFU antagonist project, Wnt-LIGHT cells, luminescence (AID 651570); format: functional; conditions: read-out: IC50_Mean;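 further: Wnt-LIGHT reporter cells stimulated with conditioned medium from Wnt3a-producing cells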
Chain of Protein Wnt-3a (P27467 whole entry): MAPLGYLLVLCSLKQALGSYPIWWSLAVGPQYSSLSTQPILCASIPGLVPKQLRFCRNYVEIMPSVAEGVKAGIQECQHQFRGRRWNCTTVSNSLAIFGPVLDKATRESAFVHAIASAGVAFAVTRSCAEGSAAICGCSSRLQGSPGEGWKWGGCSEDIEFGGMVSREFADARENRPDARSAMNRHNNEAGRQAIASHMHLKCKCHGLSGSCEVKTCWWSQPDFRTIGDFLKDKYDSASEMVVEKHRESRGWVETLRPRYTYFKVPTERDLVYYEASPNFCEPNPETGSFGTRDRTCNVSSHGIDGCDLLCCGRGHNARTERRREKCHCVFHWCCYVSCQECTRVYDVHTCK

[13] = biological target: COUP transcription factor 2 (Homo sapiens, UniProt P24468); assay: Luminescence-based cell-based high throughput dose response assay to identify inhibitors of COUP-TFII (NR2F2).; format: functional;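 further: HEK293 cells transiently cotransfected with COUP-TFII expression vector and reporter; luciferase reporter luminescence driven by COUP-TFII from the pX2-168 reporter plasmid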
[14] = A Cell-Based Confirmatory Screen for Compounds that Inhibit VEEV, TC-83 (8).; format: functional
[15] = biological target: Protein disulfide-isomerase (Homo sapiens, UniProt P07237); assay: PDI inhibitors, insulin turbidity readout, confirmation, biochemical, dry powder samples, set 2 (AID 652146)
Chain of Protein disulfide-isomerase (P07237 whole entry): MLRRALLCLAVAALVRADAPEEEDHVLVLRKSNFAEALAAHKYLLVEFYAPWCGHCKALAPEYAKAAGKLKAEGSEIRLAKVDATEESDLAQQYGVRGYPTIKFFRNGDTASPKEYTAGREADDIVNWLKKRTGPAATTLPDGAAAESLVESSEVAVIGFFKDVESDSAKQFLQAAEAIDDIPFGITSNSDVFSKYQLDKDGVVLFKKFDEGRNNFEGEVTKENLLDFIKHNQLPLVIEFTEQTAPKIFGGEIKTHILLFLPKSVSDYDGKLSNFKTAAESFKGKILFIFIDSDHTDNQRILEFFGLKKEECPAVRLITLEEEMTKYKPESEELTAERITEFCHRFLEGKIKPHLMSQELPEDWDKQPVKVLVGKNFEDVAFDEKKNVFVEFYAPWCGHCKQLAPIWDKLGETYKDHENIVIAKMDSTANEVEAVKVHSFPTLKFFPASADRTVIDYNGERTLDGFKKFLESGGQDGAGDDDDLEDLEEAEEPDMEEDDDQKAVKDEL

[16] = HEK293 cell cytotoxicity, dose response, cytotoxicity control, HEK293T, ATP luminescence, dry powder (AID 652119); format: functional, cell-based
[17] = biological target: Potassium channel subfamily K member 3 (Homo sapiens, UniProt O14649); assay: TASK1 (KCNK3) potassium channel inhibitors, SAR follow-up, CHO cells, FluxOR thallium flux (AID 652212); format: functional
Chain of Potassium channel subfamily K member 3 (O14649 whole entry): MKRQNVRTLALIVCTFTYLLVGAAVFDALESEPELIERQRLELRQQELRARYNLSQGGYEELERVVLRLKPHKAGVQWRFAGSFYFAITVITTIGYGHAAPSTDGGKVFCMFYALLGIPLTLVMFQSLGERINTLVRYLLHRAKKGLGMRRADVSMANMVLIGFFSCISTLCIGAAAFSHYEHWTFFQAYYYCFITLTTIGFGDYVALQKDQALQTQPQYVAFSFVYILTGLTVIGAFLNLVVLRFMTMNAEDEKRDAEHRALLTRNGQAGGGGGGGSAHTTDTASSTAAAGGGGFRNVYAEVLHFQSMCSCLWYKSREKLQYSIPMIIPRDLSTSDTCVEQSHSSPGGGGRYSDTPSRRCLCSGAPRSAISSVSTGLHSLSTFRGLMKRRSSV

[18] = biological target: Potassium channel subfamily K member 9 (Homo sapiens, UniProt Q9NPC2); assay: TASK3 (KCNK9) channel inhibitors, thallium flux, SAR follow-up, selectivity assay for TASK1 inhibitor project, cell-based, FluxOR thallium flux, concentration-response (AID 652211); format: functional;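 further: potency is for inhibitors of the channel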
Chain of Potassium channel subfamily K member 9 (Q9NPC2 whole entry): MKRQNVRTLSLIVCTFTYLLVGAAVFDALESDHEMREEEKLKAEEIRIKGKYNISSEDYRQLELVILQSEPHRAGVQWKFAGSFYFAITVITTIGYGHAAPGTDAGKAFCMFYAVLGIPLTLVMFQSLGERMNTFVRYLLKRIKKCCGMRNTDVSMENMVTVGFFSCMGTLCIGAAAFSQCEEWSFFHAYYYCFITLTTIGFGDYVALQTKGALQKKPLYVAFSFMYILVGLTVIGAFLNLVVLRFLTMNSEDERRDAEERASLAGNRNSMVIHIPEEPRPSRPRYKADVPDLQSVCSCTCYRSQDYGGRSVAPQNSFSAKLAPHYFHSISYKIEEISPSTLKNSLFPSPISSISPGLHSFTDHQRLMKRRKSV

[19] = biological target: Voltage-gated inwardly rectifying potassium channel KCNH2 (Homo sapiens, UniProt Q12809); assay: hERG channel inhibition in selectivity testing, SAR follow-up, selectivity assay for TASK1 inhibitor project, FluxOR thallium flux, concentration-response, CHO cells (AID 652194); format: functional, cell-based
Chain of Voltage-gated inwardly rectifying potassium channel KCNH2 (Q12809 whole entry): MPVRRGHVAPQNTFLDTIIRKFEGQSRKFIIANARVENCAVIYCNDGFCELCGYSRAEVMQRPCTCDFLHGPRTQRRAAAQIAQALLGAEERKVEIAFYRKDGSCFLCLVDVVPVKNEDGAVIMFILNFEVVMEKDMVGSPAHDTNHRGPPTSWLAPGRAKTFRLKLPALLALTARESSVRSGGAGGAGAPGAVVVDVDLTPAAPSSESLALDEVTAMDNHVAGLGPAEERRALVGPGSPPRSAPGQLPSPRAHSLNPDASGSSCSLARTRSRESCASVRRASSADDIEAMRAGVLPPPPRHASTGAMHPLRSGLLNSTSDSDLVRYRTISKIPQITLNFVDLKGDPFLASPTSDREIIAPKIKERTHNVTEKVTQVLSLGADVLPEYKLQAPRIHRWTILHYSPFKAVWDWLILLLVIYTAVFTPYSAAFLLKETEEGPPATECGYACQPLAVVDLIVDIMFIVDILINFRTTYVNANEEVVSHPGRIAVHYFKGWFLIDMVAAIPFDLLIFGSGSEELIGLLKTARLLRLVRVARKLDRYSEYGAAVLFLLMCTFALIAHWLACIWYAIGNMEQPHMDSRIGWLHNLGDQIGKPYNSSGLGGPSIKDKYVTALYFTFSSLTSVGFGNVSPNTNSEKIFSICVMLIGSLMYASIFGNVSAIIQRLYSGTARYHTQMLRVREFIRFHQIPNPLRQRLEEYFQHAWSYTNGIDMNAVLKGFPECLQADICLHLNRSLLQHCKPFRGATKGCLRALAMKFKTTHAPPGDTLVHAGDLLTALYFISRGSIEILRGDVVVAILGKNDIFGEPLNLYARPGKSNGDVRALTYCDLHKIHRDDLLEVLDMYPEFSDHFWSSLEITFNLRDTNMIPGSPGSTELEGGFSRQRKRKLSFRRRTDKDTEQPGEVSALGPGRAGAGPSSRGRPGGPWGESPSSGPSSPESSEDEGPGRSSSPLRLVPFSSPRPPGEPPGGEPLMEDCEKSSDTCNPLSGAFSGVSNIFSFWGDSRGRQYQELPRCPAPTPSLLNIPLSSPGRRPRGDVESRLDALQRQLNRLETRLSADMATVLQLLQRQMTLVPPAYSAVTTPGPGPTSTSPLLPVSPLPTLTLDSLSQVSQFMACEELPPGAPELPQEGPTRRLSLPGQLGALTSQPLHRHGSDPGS

[20] = Late stage assay provider results from the probe development effort to identify inhibitors of the Plasmodium falciparum M18 Aspartyl Aminopeptidase (M18AAP): radiolabel-based cell-based dose response assay to identify compounds that inhibit P. falciparum growth in RBCs, Set 2..; format: functional
[21] = cytotoxicity in A549 cells, dose response, cytotoxicity control, cell-based, cherry-picked samples (AID 1053184); format: functional
[22] = cytotoxicity in HepG2 cells, dose response, cytotoxicity control, cell-based, cherry-picked samples (AID 1053183); format: functional
[23] = cytotoxicity in HEK293 cells, dose response, cytotoxicity control, cell-based, cherry-picked samples (AID 1053185); format: functional
[24] = biological target: Disintegrin and metalloproteinase domain-containing protein 17 (Homo sapiens, UniProt P78536); assay: ADAM17 protease inhibitors, dose response, counter-screen for ADAM10 exosite inhibitor project, biochemical, quenched FRET substrate (AID 743253)
Chain of Disintegrin and metalloproteinase domain-containing protein 17 (P78536 whole entry, the tested form may be a part): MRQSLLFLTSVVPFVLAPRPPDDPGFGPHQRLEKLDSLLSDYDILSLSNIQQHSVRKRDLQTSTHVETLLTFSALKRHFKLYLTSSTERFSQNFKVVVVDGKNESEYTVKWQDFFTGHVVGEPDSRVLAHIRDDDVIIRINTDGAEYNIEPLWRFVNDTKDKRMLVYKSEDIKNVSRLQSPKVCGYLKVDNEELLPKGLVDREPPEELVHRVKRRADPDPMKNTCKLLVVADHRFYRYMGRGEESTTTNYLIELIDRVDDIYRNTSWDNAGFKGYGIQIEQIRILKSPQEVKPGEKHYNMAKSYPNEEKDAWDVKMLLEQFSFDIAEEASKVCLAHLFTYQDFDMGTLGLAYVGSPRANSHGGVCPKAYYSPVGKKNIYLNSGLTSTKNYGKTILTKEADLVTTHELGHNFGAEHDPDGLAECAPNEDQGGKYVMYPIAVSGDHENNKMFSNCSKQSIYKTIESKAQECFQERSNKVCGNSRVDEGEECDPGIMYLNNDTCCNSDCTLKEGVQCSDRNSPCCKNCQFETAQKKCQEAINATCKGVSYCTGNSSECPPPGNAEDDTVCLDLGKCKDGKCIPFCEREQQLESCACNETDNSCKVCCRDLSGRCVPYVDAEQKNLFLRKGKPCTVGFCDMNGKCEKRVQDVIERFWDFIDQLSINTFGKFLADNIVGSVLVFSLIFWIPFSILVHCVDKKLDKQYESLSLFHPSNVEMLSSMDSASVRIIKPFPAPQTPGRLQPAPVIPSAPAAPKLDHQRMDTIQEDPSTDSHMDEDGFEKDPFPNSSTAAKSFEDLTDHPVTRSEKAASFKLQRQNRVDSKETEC

[25] = biological target: Estrogen receptor beta (Homo sapiens, UniProt Q92731);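 further: recombinant ER-beta bound to coactivator SRC1 peptide in presence of estradiol agonist; inhibitors block coactivator peptide binding and lower the FRET signal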
Chain of Estrogen receptor beta (Q92731 whole entry): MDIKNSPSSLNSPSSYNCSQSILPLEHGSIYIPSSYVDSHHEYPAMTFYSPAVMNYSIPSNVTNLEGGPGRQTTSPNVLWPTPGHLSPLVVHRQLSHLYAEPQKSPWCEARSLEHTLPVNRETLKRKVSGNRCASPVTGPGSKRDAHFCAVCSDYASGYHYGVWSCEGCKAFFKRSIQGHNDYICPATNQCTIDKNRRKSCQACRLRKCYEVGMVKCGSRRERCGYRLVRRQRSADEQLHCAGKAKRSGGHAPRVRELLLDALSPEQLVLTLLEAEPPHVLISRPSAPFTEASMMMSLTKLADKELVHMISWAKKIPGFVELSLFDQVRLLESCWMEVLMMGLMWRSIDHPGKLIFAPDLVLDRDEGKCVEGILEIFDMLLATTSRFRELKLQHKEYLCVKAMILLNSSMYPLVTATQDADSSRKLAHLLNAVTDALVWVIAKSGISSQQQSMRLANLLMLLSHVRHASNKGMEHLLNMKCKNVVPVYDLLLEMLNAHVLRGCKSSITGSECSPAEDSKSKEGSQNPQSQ

[26] = test system: Streptococcus; assay: Group A Streptococcus viability loss, dose response, counter-screen for streptokinase expression inhibitor project, luminescence, BacTiterGlo (AID 1915); format: functional, organism-based;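 further: potency for reduction of bacterial viability or growth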
[27] = test system: Streptococcus sp. 'group A'; assay: growth inhibition of control SK(-) GAS strain, dose response, counter-screen for streptokinase expression inhibitor project, luminescence, kanamycin, BacTiterGlo, confirmation (AID 1900); format: functional, organism-based
[28] = NIH-3T3 fibroblast cytotoxicity, dose response, cytotoxicity control, cell-based, fluorescence, Alamar Blue, secondary assay (AID 2327); format: functional;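 further: NIH-3T3 mouse fibroblasts cultured with fluconazole at 8 µg/mL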
[29] = ADAM10 inhibitors, peptide cleavage, dose response, biochemical, QFRET (AID 743254);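 further: ADAM10 enzyme with the DM2 quenched FRET peptide as substrate; EDANS fluorescence gain as the protease cuts the substrate; inhibitor potency against ADAM10 proteolytic activity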
[30] = C. albicans growth with fluconazole, confirmation, fluorescence, retest (AID 2467); format: functional, cell-based
[31] = biological target: Kallikrein-7 (Homo sapiens, UniProt P49862); assay: Fluorescence Intensity-based biochemical primary high throughput dose response assay to identify activators of kallikrein-7 (K7) zymogen.
Chain of Kallikrein-7 (P49862 whole entry): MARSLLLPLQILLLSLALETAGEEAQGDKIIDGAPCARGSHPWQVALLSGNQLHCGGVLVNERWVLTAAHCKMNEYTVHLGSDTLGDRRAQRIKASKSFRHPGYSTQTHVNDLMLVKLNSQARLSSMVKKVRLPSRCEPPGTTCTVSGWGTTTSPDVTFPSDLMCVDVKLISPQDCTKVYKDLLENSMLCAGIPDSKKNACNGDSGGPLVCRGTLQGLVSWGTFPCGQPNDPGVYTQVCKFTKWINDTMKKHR

[32] = test system: HEK293; assay: HEK293T cell cytotoxicity, dose response, cytotoxicity control, ATP luminescence, cherry-pick samples (AID 687005); format: functional, cell-based; conditions: Homo sapiens;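 further: cells exposed to compound for 48 hours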
[33] = test system: HeLa; assay: HeLa cell cytotoxicity, dose response, cytotoxicity control, ATP luminescence, cherry-pick samples (AID 687004); format: functional, cell-based; conditions: Homo sapiens
[34] = test system: Cryptococcus neoformans; assay: PubChem AID 686997; format: functional, organism-based
[35] = HEK293 Cytotoxicity Assay Measured in Cell-Based System Using Plate Reader - 7071-01_Inhibitor_Dose_CherryPick_Activity_Set2.; format: functional
[36] = cells

O=C(Nc1nnc(-c2ccc3c(c2)OCCO3)o1)C1CCCCCC1
AC50 [1]: > 200 µM (inactive)

CCc1cc(CNC(=O)c2ccc(OC)c(OCCN3CCCCC3)c2)on1
IC50 [2]: 5.91 µM (active)

Cc1ccc(C(=O)NC(=S)NNC(=O)c2ccccc2)cc1
EC50 [3]: 1.33 µM (active) | IC50 [4]: 51.6 µM (inactive)

Cc1nc(N)sc1N=Nc1ccc(Br)cc1
EC50 [5]: > 67.5 µM (inactive) | EC50 [6]: 0.285 µM (active) | AC50 [7]: 0.753 µM (active) | EC50 [8]: < 0.1 µM (active) | EC50 [9]: 0.303 µM (active) | EC50 [10]: > 120 µM (not active) | EC50 [11]: 0.28 µM (active)

CCC(C)NC(=O)CCC(=O)OC1O[C@H]2OC3(C)CC[C@H]4[C@H](C)CCC(C1C)C24OO3 (some centres not stated)
IC50 [12]: 0.238 µM (active) | IC50 [13]: 468 µM (inactive)

O=c1nc(Nc2cccc(OCc3ccccc3)c2)sc2ncccc12
IC50 [14]: 1.64 µM (active)

CCN(C)C(=O)C1(CCOc2ccccc2)CCN(Cc2ccc(O)c(Cl)c2)CC1
AC50 [15]: 3 µM (active) | AC50 [16]: > 52 µM (inactive)

CCCC(=O)C1CCN(c2ncnc3c2CN(C(=O)c2ccc(-c4ccccc4)cc2)CC3)CC1
IC50 [17]: 0.021 µM (active) | IC50 [18]: 0.14 µM (active) | IC50 [19]: 7.68 µM (active)

CN(CCc1ccc(O)c(O)c1)c1ccnc2ccccc12
IC50 [20]: 4.8 µM (active)

Fc1cccc(CN2C[C@@H]3N[C@H](C2)[C@H]3c2ccc(/C=C/c3ccccc3)cc2)c1
AC50 [21]: 13.7 µM (active) | AC50 [22]: 18.8 µM (active) | AC50 [23]: 13.2 µM (active)

Cc1cc(NC(=O)c2c(F)cccc2Cl)n(-c2nc3ccccc3[nH]2)n1
IC50 [24]: > 69.5 µM (inactive) | IC50 [25]: > 50 µM (not active) | EC50 [26]: 7.12 µM (active) | EC50 [27]: 6.4 µM (active) | EC50 [28]: > 160 µM (inconclusive) | IC50 [29]: > 7.72 µM (active) | EC50 [30]: > 38 µM (not active)

CNc1ccc(-c2cccc(CO)c2)cn1
EC50 [31]: > 7.72 µM (active)

COC(=O)C1=C(C)N(Cc2ccc(Br)cc2)C(=S)NC1c1ccc(OC)cc1 (configuration not stated)
AC50 [32]: 22.2 µM (active) | AC50 [33]: > 47 µM (inactive) | AC50 [34]: > 60 µM (inactive) | AC50 ([34]; Cryptococcus neoformans): 36.4 µM (active) | AC50 [35]: 22.2 µM (active)

COc1ccc(C2C3=C(CC(C)(C)CC3=O)N(C)C3=C2C(=O)CC(C)(C)C3)cc1
AC50 [36]: 2.07 µM (active)
